Source: patent publication US20100093613A1, “METHODS FOR IDENTIFYING AGENTS AND THEIR USE FOR THE PREVENTION OR STABILIZATION OF FIBROSIS” (priority 2007, published 2010)

Legend:
Fibroblasts [1] = assay: BioMAP HDF3CGF system (IL-1β + TNF-α + IFN-γ + EGF + bFGF + PDGFbb), scoring of readout parameters; assay type: cell-based, human; details: for PAI-1 score: desired change decrease; for MMP-1 score: desired change increase; for EGFR score: desired no change or increase
Procedure: In the “HDF-3CGF” system, dermal fibroblast cells, usually primary human dermal fibroblast cells are cultured alone or in the presence of lung epithelial cells, usually primary human lung epithelial cells, with two or more factors selected from: TNF, IL-1, IFNγ, EGF, bFGF+HSPG (heparan sulfate proteoglycan), and PDGFbb. In some embodiments three or more factors are present, four or more, five or more, or all six factors are present.
Human neonatal dermal fibroblasts (HDFn) or adult lung fibroblasts (HDFp) or fibroblasts from tissues such as liver, heart, or kidney are used. Cells are cultured at 3×10^4 cells/ml in DMEM/F12 (50/50) from Cellgro, supplemented with LSGS kit (from Cascade Biologics); fetal bovine serum, 2% v/v, hydrocortisone 100 nM, human epidermal growth factor 10 ng/ml, basic fibroblast growth factor 3 ng/ml and heparin 10 μg/ml, and penicillin/streptomycin amphotericin B solution (PSA), until confluency. Medium is replaced with DMEM/F12 with only penicillin/streptomycin amphotericin B solution (PSA), then 24 hours later, the following are applied:
After another 24, 48 or 72 hours incubation (37° C., 5% CO2) the cultures are evaluated for the following parameters: ICAM, VCAM, CD40, CD90, IP-10, MCP-1, Collagen I, Mig, m-CSF, TIMP-2, PAI-I, IL-8, Collagen III, HLA-DR, MMP-1, MMP-9, proliferation, TGF-b1, eotaxin-3, decorin, alpha-SMC, MLCK, I-TAC, EGFR, TIMP-1.
Cell culture. […] Human dermal fibroblasts were pooled from 3 donors, cultured according to standard methods, and plated confluent 24 h before stimulation. Cell culture medium for all systems containing fibroblasts and keratinocytes contained low hydrocortisone. […] Concentrations/amounts of agents added to confluent microtiter plates to build each system: cytokines (IL-1β, 1 ng/ml; TNF-α, 5 ng/ml; IFN-γ, 20 ng/ml; IL-4, 5 ng/ml), activators (SAg, 20 ng/ml; histamine, 10 μM; zymosan, 10 μg/ml; or LPS, 2 ng/ml), growth factors (TGF-β, 5 ng/ml; EGF, bFGF, and PDGF-BB, 10 ng/ml), and PBMC (7.5×10^4 cells/well) or macrophages (3.5×10^4 cells/well).

[2] = tested on: Peripheral Blood Mononuclear Cells + Umbilical Vein Endothelial Cells; assay: BioMAP LPS system (TLR4), scoring of readout parameters; assay type: cell-based, human; details: LPS (by position); desired change decrease
Text: (§1) Each screened compound is scored according to its modulation of the selected readout parameters. Compounds receive a positive score (score of 1) or negative score (score of 0) for each readout parameter set forth in Table 2 that is modulated in the desired direction. […] Parameters may be penalized by making the positive score a −1 for parameters where regulation is opposite to the desired direction.
(§2) Cell culture. Human umbilical vein endothelial cells (HUVEC) were pooled from multiple donors, cultured according to standard methods, and plated into microtiter plates at passage 4. Cell culture medium for all systems containing HUVEC included hydrocortisone. Coronary artery smooth muscle cells (CASM3C) and umbilical artery smooth muscle cells (HSM3C) were cultured according to standard procedures. Peripheral blood mononuclear cells (PBMC) were prepared from buffy coats from normal human donors according to standard methods. Monocyte-derived macrophages were differentiated in the presence of M-CSF for 7 d according to standard procedures. Human dermal fibroblasts were pooled from 3 donors, cultured according to standard methods, and plated confluent 24 h before stimulation. Cell culture medium for all systems containing fibroblasts and keratinocytes contained low hydrocortisone. Epidermal keratinocytes and bronchial epithelial cells from 3 donors were cultured according to standard procedures and pooled when plated into microtiter plates. For keratinocyte-fibroblast co-cultures, cells were plated simultaneously 24 h before stimulation. For bronchial epithelial cell-fibroblast co-cultures, fibroblasts were plated and cultured 48 before addition of epithelial cells, then cultured another 24 hr before stimulation. Concentrations/amounts of agents added to confluent microtiter plates to build each system: cytokines (IL-1β, 1 ng/ml; TNF-α, 5 ng/ml; IFN-γ, 20 ng/ml; IL-4, 5 ng/ml), activators (SAg, 20 ng/ml; histamine, 10 μM; zymosan, 10 μg/ml; or LPS, 2 ng/ml), growth factors (TGF-β, 5 ng/ml; EGF, bFGF, and PDGF-BB, 10 ng/ml), and PBMC (7.5×10^4 cells/well) or macrophages (3.5×10^4 cells/well).
(§3) Compounds. Compounds were prepared in the solvent directed, added 1 hr before stimulation of the cells, and were present during the 24 hr stimulation period for the measurement of parameters listed in Table 2. For proliferation, compounds added 1 hr before stimulation of the cells with cytokines, and were present during the 48 to 72 hr assay. If prepared in DMSO, the final concentration of solvent was 0.1% or less.
(§4) Readout Parameter Measurements. The levels of readout parameters were measured by ELISA. Briefly, microtiter plates are treated, blocked, and then incubated with primary antibodies or isotype control antibodies (0.01-0.5 microg/ml) for 1 hr. After washing, plates were incubated with a peroxidase-conjugated anti-mouse IgG secondary antibody or a biotin-conjugated anti-mouse IgG antibody for 1 hr followed by streptavidin-HRP for 30 min. Plates were washed and developed with TMB substrate and the absorbance (OD) was read at 450 nm (subtracting the background absorbance at 650 nm). Quantitation of TNF-alpha or PGE2 in the LPS system was done using a commercially available kit according to the manufacturer's directions. Proliferation of endothelial cells (HUVEC and CAEC), smooth muscle cells (SMC and CASMC), and PBMC (T cells) was quantitated by Alamar Blue reduction or SRB.
(§5) Data analysis. Mean OD values for each parameter were calculated for compounds run in duplicate. The mean value (or single well OD value) for each parameter in a treated sample was then divided by the mean value from an appropriate control to generate a ratio. All ratios were then log10 transformed. 95% significance prediction envelopes (grey shading in Figures) were calculated for historical controls.

Fibroblasts [3] = assay: BioMAP HDFT system (TGF-β), scoring of readout parameters; assay type: cell-based, human; set-up: key to PAI-1 score: 1 = modulated in desired direction, 0 = not (no penalties applied); details: for PAI-1 score: HDFT, desired change decrease; for inhibit PAI-1 in the HDFT system: indication of TGF-b signaling inhibition without being cytotoxic
Text: as §1
(§6) Compounds were first selected to inhibit PAI-1 in the HDFT as an indication of TBF-b signaling inhibition without being cytotoxic. […] Blank spots in Table 3 were where parameter was not assayed. Penalties were not applied for this scoring.
as §2, §3, §4
Data analysis. Mean OD values for each parameter were calculated for compounds run in duplicate. The mean value (or single well OD value) for each parameter in a treated sample was then divided by the mean value from an appropriate control to generate a ratio.

[4] = tested on: Bronchial epithelial cells; assay: BioMAP BE4T system (IL-4 + TNF-a), scoring of readout parameters; assay type: cell-based, human; set-up: key: 1 = modulated in desired direction, 0 = not (−1 = opposite); details: for PAI-1 score: desired change decrease; for EGFR score: desired no change or increase
Procedure: In the “BE4T” system, bronchial epithelial cells, usually primary human bronchial epithelial cells, are cultured in the presence of TNF-α and IL-4.
as §1, §2, §3, §4, §5

human primary cells = assay: Total score for desired parameter modulation over the BioMAP systems of Table 1; assay type: cell-based; details: penalties not applied
Text: as §1
The relative importance of each parameter may be weighted by the screener to select those parameters of greatest interest for a particular application.
as §6
BioMAP Systems are designed to model complex human disease biology in a practical in vitro format. This is achieved by stimulating human primary cells (single cell type or defined mixtures of cell types) such that multiple disease-relevant signaling pathways are simultaneously active. The choice of cell types and stimulations is guided by the knowledge of disease biology and mechanisms. Incorporating appropriate cell types and stimulating signaling pathways relevant to disease states allows association of biological activities detected in BioMAP Systems with disease processes. Drug effects are then recorded by measuring biologically meaningful protein readouts that provide coverage of biological space of interest (e.g., inflammation, tissue remodeling) and allow discrimination between different drug classes tested.
as §2, §3
Readout Parameter Measurements. The levels of readout parameters were measured by ELISA.

Fibroblasts [5] = assay: BioMAP HDF3CT system (IL-1β + TNF-α + IFN-γ + TGF-β), scoring of readout parameters; assay type: cell-based, human
Text: as §1, §2, §3, §4, §5

Compound | PAI-1 score (Fibroblasts [1]) | MMP-1 score (Fibroblasts [1]) | EGFR score (Fibroblasts [1]) | TF score [2] | PAI-1 score (Fibroblasts [3]) | uPA score [4] | PAI-1 score [4] | EGFR score [4] | Score (Fraction correctly modulated parameters out of 45-58 total) (human primary cells) | MMP-1 score (Fibroblasts [5]) | inhibit PAI-1 in the HDFT system (Fibroblasts [3])
(R)-(−)-Apomorphine | 1 | 0 | 0 | 0 | 1 | 0 | 0 | 0 | 0.31 | 0 | –
O=C(O)c1ccccc1Nc1cccc(C(F)(F)F)c1 [Flufenamic Acid] | 0 | 0 | 0 | 0 | 1 | 0 | 1 | 0 | 0.28 | 1 | –
O=c1cc(-c2ccc(O)c(O)c2)oc2cc(O)cc(O)c12 [Luteolin] | 1 | 0 | 0 | 1 | 1 | 0 | 0 | 0 | 0.36 | 0 | –
Cn1cnc([N+](=O)[O-])c1Sc1ncnc2nc[nH]c12 [Azathioprine] | 0 | 0 | 0 | 0 | 0 | 0 | 0 | 0 | 0.12 | 0 | none of these inhibit PAI-1
C=C1CC[C@H](O)C/C1=C/C=C1\CCC[C@]2(C)[C@@H]([C@H](C)/C=C/[C@H](C)C(C)C)CC[C@@H]12 [Calciferol] | 1 | 0 | 0 | 0 | 1 | 1 | 0 | 0 | 0.29 | 0 | –
COc1cc(-c2ccc(=O)[nH]n2)ccc1OC(F)F [Zardaverine] | 1 | 0 | 0 | 1 | 1 | 0 | 0 | 0 | 0.25 | 0 | –
CCc1oc2ccccc2c1C(=O)c1cc(Br)c(O)c(Br)c1 [Benzbromarone] | 1 | 0 | 0 | 0 | 1 | 1 | 0 | 0 | 0.36 | 0 | –
Antimycin A | 1 | 0 | 0 | 1 | 1 | 0 | 1 | 0 | 0.45 | 0 | –
Cc1c(Cl)cccc1Nc1ccccc1C(=O)O [Tolfenamic Acid] | 0 | 0 | 0 | 0 | 1 | 0 | 0 | 0 | 0.33 | 1 | –
CCCCN(CCCC)CCC(O)c1cc2c(Cl)cc(Cl)cc2c2cc(C(F)(F)F)ccc12 (stereo not drawn) [Halofantrine] | 1 | 0 | 0 | 0 | 1 | 0 | 0 | 0 | 0.27 | 0 | –
C[C@]12C=CC(=O)C=C1CC[C@@H]1[C@@H]2[C@@H](O)C[C@@]2(C)[C@H]1CC[C@]2(O)C(=O)CO [Prednisolone] | 0 | 0 | 0 | 0 | 0 | 0 | 0 | 0 | 0.17 | 0 | none of these inhibit PAI-1
Fc1ccc(C(OCCN2CCN(CCCc3ccccc3)CC2)c2ccc(F)cc2)cc1 [GBR 12909] | 1 | 0 | 0 | 0 | 1 | 0 | 0 | 0 | 0.29 | 0 | –
COc1cc2c(c(OC)c1OC)-c1ccc(OC)c(=O)cc1[C@@H](NC(C)=O)CC2 [Colchicine] | 0 | 0 | 0 | 0 | 0 | 1 | 0 | 0 | 0.17 | 0 | none of these inhibit PAI-1
COC(=O)Nc1nc2ccc(SC(C)C)cc2[nH]1 [Methiazole] | 1 | 0 | 0 | 1 | 1 | 0 | 1 | 0 | 0.55 | 0 | –
CCN(CC)CCNc1ccc(CO)c2sc3ccccc3c(=O)c12 [Hycanthone] | 1 | 0 | 0 | 1 | 1 | 0 | 1 | 0 | 0.28 | 0 | –
